For orientation: DC50 means the concentration at which degradation of the target reaches its halfway point. Low readings indicate degradation at low concentration, high ones degradation only at high concentration. The term Dmax denotes the greatest extent of degradation seen. A lower Dmax goes with a partial loss of target.

This is an account of results in US20250051344A1, “BIFUNCTIONAL SELECTIVE DEGRADERS OF SMARCA2 AND THERAPEUTIC USES THEREOF” (Nurix Therapeutics, Inc., priority 2023, published 2025).

One test concerns the target T1, SMARCA4 (Homo sapiens, UniProt P51532).
T1 construct: endogenous in cells
Put plainly: Cellular degradation assay, SMARCA4 (Table 1). It counts as cell-based.

The target in the next test is T2, SMARCA2 (Homo sapiens, UniProt P51531).
T2 construct: endogenous in cells
Put plainly: SMARCA2 Cellular Degradation Assay (Western blot analysis on Jess platform). It counts as cell-based. The conditions noted are these: for DC50 / Dmax: cellular degradation; for Fold Selectivity SMARCA4/2: ratio DC50 SMARCA4 / DC50 SMARCA2. As to the method: SMARCA2 Cellular Degradation Assay
Western Blot Analysis for SMARCA2 Degradation
Frozen cell pellets were thawed on ice and resuspended in RIPA lysis buffer (Millipore, Cat. No. 20-188) supplemented with 0.2% SDS (Fisher Scientific, Cat. No. 24730020), 200 mM β-glycerophosphate (Alfa Aesar, Cat. No. J62121), 500 mM NaF (Rigaku, Cat. No. 1008046), protease inhibitor (1 tablet per 10 mL, Sigma, Cat. No. 11836170001), 250 U/μL benzonase (Millipore, Cat. No. 71206), 200 mM sodium orthovanadate (FivePhoton, Cat. No. ActVO-4), and 100 mM PMSF (Sigma, Cat. No. 10837091001). 50 μL lysis buffer was used to lyse each pellet containing 5×10E5-1×10E6 live cells extracted from tumors. Lysates were centrifuged for 10 mins at 20,817×g and lysate supernatants were saved for further analysis. Protein levels were determined by the BCA Assay performed according to manufacturer's protocol (EMD Millipore, Cat. No. 71285-3). Samples were evaluated by Western blot analysis on the Jess Platform (ProteinSimple). Lysates were diluted with complete lysis buffer (as described above) and 5 μg of total proteins were loaded onto each capillary. Samples were prepared using the ProteinSimple EZ Standard Pack 1 (Cat. No. PS-ST01EZ-8; containing tubes with powdered (5×) Fluorescent Master Mix, DTT, and biotinylated ladder) and run using the ProteinSimple 25-Capillary Cartridge kit (Cat. No. SM-W004; containing 25-capillary cartridge Wash reagent, and 10× Sample Buffer reagent), the ProteinSimple Anti-Rabbit HRP Detection Module for Jess (Cat. No. DM-001; containing Antibody Diluent, anti-rabbit secondary antibody, Luminol-S, Peroxide, and Streptavidin-HRP), and the ProteinSimple Anti-Mouse NIR Detection Module for Jess (Cat. No. DM-009; containing Antibody Diluent, anti-mouse NIR secondary antibody, and Streptavidin-NIR) as the following describes. The DTT was reconstituted with 40 μL water to make a 400 mM solution, 20 μL of the DTT solution plus 20 μL of 10× Sample Buffer were added to reconstitute the 5× Fluorescent Master Mix, and 20 μL of H2O was used to reconstitute the biotinylated ladder. For each sample, lysate (4 μL) was combined with 5× Fluorescent Master Mix (1 μL) and heated at 95° C. for 5 minutes. Samples were cooled and stored on ice. Primary antibody solution was made using anti-SMARCA2 antibody (Abcam, Cat. No. 240648, 1:10) and anti-beta-Actin antibody (Cell Signaling Technology, Cat. No. 3700S, 1:25) in antibody diluent. The 25-capillary cartridges were prepared per standard ProteinSimple protocol with each sample in a column. For the biotinylated ladder in column 1, the following were added: 5 µL of ladder sample in Row A, 10 μL of antibody diluent in Rows B and C, 10 μL of Streptavidin-NIR in Row D, and 15 μL of a 50:50 Luminol-s/Peroxide solution in Row E. For each test sample (columns 2-25), the following were added per column: 5 μL of sample in Row A, 10 μL of antibody diluent in Row B, 10 μL of primary antibody solution in Row C, 10 μL of secondary antibody in Row D, and 15 μL of a 50:50 Luminol-S/Peroxide solution in Row E. 500 μL wash buffer was added to the wash buffer wells in the cartridge and cartridge was spun at 1000×g for 5 minutes prior to loading into the Jess. Samples were run using the Chemiluminescence and Fluorescence immunoassays in the ProteinSimple Compass for SimpleWestern program (version 5.0.0). After running, SMARCA2, actin, and background curves were identified in the Compass software; note that in the Compass software, the electropherograms are also visualized as bands for comparison with standard Western blot outputs. The electropherogram area reading for each sample curve was normalized to that of the corresponding actin curve per column following background (capillary background) subtraction using the following equation: […]
Following normalization, the percentage of SMARCA2 remaining per sample relative to the vehicle control was calculated as follows: […]

T2 sequence (P51531 whole entry, species assumed): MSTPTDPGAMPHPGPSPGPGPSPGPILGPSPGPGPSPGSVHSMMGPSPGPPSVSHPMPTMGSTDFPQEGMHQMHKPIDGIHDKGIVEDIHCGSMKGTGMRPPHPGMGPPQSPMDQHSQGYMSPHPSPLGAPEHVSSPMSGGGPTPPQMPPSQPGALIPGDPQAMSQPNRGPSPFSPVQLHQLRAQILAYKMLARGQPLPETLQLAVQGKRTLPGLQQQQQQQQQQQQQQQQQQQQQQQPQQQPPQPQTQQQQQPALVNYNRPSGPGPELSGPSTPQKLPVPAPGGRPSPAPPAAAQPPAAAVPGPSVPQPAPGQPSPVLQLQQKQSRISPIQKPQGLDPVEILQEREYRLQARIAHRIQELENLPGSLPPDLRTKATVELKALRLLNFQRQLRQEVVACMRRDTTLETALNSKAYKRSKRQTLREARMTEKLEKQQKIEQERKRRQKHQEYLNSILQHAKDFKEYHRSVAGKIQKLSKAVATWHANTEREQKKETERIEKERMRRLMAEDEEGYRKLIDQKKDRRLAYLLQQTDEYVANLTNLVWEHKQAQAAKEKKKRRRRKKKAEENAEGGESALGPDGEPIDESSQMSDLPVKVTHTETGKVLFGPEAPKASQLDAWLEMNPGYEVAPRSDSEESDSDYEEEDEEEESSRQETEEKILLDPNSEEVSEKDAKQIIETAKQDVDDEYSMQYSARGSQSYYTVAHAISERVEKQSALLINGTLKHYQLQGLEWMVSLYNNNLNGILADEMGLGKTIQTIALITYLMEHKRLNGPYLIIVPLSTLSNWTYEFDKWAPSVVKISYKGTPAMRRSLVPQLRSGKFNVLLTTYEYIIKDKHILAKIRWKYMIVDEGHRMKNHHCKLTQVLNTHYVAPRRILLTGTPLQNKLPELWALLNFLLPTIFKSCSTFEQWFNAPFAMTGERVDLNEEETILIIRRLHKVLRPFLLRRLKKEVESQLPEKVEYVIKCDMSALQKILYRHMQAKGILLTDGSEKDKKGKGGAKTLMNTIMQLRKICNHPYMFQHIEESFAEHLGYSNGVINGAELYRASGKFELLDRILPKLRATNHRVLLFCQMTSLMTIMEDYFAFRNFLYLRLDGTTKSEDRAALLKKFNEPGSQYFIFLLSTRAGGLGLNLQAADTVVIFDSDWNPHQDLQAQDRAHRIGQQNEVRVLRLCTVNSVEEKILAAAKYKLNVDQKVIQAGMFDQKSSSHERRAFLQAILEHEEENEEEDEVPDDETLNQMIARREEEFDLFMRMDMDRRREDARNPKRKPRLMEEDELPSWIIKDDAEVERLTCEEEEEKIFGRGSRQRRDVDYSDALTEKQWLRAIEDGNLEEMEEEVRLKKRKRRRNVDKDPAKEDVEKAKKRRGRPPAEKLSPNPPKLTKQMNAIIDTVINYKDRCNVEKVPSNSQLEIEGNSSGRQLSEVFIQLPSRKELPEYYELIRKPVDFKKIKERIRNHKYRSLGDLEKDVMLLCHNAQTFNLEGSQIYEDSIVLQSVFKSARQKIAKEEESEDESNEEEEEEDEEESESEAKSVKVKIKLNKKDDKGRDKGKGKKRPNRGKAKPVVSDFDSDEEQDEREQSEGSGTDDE
T1 sequence (P51532 whole entry, species assumed): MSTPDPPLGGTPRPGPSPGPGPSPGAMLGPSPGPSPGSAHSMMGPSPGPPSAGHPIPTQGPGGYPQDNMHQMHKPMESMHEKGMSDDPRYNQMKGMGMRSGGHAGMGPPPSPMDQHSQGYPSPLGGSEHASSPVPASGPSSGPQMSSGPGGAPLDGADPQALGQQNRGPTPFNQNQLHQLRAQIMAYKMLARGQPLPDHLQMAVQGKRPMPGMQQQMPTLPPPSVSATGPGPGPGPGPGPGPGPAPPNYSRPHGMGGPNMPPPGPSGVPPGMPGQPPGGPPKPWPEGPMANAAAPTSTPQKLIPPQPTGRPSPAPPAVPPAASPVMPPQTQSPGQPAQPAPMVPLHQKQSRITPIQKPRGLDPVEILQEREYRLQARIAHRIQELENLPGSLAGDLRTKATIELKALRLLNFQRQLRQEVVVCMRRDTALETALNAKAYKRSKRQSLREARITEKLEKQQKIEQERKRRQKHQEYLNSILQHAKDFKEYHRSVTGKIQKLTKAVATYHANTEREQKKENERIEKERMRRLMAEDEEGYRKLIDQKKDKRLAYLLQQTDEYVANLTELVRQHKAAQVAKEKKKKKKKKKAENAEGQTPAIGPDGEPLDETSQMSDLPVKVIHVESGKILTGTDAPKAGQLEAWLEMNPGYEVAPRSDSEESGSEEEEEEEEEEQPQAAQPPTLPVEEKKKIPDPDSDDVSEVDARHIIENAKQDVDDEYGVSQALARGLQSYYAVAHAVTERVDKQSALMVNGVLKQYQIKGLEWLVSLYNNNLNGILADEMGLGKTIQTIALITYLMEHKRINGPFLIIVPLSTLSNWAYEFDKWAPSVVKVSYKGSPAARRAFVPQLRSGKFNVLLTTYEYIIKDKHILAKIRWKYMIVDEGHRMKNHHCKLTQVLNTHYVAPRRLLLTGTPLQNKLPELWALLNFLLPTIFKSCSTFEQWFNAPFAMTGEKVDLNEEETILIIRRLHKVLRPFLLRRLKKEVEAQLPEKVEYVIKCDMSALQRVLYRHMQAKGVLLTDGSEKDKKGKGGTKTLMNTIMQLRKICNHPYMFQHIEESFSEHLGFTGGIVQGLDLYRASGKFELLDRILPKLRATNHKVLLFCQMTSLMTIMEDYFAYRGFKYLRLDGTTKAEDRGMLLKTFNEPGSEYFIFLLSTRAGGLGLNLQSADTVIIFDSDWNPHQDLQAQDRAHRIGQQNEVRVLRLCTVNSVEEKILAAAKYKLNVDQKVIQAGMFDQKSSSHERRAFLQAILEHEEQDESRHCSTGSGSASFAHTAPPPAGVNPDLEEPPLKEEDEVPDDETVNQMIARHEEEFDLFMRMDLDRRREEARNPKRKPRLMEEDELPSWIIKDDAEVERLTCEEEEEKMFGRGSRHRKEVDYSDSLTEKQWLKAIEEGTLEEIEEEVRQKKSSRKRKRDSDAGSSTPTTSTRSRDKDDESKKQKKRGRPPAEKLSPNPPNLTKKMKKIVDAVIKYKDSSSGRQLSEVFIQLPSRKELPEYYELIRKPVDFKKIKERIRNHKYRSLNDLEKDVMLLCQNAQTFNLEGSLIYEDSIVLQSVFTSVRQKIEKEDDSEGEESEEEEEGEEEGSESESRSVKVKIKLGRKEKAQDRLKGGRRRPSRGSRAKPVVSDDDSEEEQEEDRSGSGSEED

At SMARCA4, `O=C1CC[C@@H](c2ccc(N3CCC(CN4CCC5(C4)CN(C(=O)C4(c6ccccc6)CCN(c6cnnc(-c7ccccc7O)c6)CC4)C5)CC3)cc2)C(=O)N1` [Example 9, (3S)-3-(4-{4-[(2-{1-[6-(2-hydroxyphenyl)pyridazin-4-yl]-4-phenylpiperidine-4-carbonyl}-2,6-diazaspiro[3.4]octan-6-yl)methyl]piperidin-1-yl}phenyl)piperidine-2,6-dione] showed a DC50 of 6720 nM and a Dmax of 44.7%. Besides, at SMARCA2, half-maximal degradation (DC50) was put at 19.9 nM, the Dmax was 75.2% and the “Fold Selectivity SMARCA4/2” value worked out at 336.59.
At SMARCA4, `CN(C(=O)C1(c2ccccc2)CCN(c2cnnc(-c3ccccc3O)c2)CC1)C1CCN(CC2CCN(c3cccc([C@@H]4CCC(=O)NC4=O)c3)CC2)CC1` (racemic) [Example 102, rac-(r)-n-(1-((1-(3-(2,6-dioxopiperidin-3-yl)phenyl)piperidin-4-yl)methyl)piperidin-4-yl)-1-(6-(2-hydroxyphenyl)pyridazin-4-yl)-n-methyl-4-phenylpiperidine-4-carboxamide] showed a DC50 of 295 nM and a Dmax of 54.4%. Besides, at SMARCA2, the DC50 is 26.3 nM, the Dmax was determined as 77.7% and the “Fold Selectivity SMARCA4/2” value is given as 11.
In turn, `O=C1CC[C@H](c2ccc(N3CCC(CNC4CCN(C(=O)C5(Oc6ccccc6)CCN(c6cnnc(-c7ccccc7O)c6)CC5)CC4)CC3)cc2)C(=O)N1` [Example 180, (3R)-3-[4-(4-{[(1-{1-[6-(2-hydroxyphenyl)pyridazin-4-yl]-4-phenoxypiperidine-4-carbonyl}piperidin-4-yl)amino]methyl}piperidin-1-yl)phenyl]piperidine-2,6-dione] displayed a Dmax on SMARCA4 of 46.2%. For the same compound, on SMARCA2, the DC50 turned out to be 13.3 nM, the Dmax was 77.2% and the “Fold Selectivity SMARCA4/2” value worked out at 754.
Regarding `CC(C)c1cc(C2(C(=O)N3CC4(CN(CC5CCN(c6ccc(C7CCC(=O)NC7=O)cc6)CC5)C4)C3)CCN(c3cnnc(-c4ccccc4O)c3)CC2)no1` (racemic) [Example 92, rac-(3R)-3-(4-{4-[(6-{1-[6-(2-hydroxyphenyl)pyridazin-4-yl]-4-[5-(propan-2-yl)-1,2-oxazol-3-yl]piperidine-4-carbonyl}-2,6-diazaspiro[3.3]heptan-2-yl)methyl]piperidin-1-yl}phenyl)piperidine-2,6-dione], at SMARCA4, half-maximal degradation (DC50) was put at 92.5 nM and the greatest degradation seen (Dmax) worked out at 50.2%. Further, on SMARCA2, half-maximal degradation (DC50) was put at 4.81 nM, the Dmax was found to be 80.8% and the “Fold Selectivity SMARCA4/2” value worked out at 19.
At SMARCA4, `O=C1CC[C@H](c2ccc(N3CCC(CCN4CCC(Oc5ccccc5)(C(=O)NCC5(c6ccccc6)CCN(c6cnnc(-c7ccccc7O)c6)CC5)CC4)CC3)cc2)C(=O)N1` (racemic) [Example 103, rac-(r)-1-(2-(1-(4-(2,6-dioxopiperidin-3-yl)phenyl)piperidin-4-yl)ethyl)-n-((1-(6-(2-hydroxyphenyl)pyridazin-4-yl)-4-phenylpiperidin-4-yl)methyl)-4-phenoxypiperidine-4-carboxamide] yielded a DC50 of 129 nM and a Dmax of 68.4%. Also, at SMARCA2, it took 15.7 nM to reach half-maximal degradation (DC50), the Dmax amounted to 87.4% and the “Fold Selectivity SMARCA4/2” value worked out at 8.
With `CC(C)c1cc(C2(C(=O)N3CC4(CN(CCC5CCN(c6ccc(C7CCC(=O)NC7=O)cc6)CC5)C4)C3)CCN(c3cnnc(-c4ccccc4O)c3)CC2)no1` (racemic) [Example 79, rac-(3R)-3-(4-{4-[2-(6-{1-[6-(2-hydroxyphenyl)pyridazin-4-yl]-4-[5-(propan-2-yl)-1,2-oxazol-3-yl]piperidine-4-carbonyl}-2,6-diazaspiro[3.3]heptan-2-yl)ethyl]piperidin-1-yl}phenyl)piperidine-2,6-dione], the maximal degradation (Dmax) on SMARCA4 turned out to be 21.9%. In addition, at SMARCA2, half-maximal degradation (DC50) was put at 12.4 nM, the Dmax was determined as 70.7% and the “Fold Selectivity SMARCA4/2” value amounted to 806.
On SMARCA4, `Cn1c(=O)n([C@H]2CCC(=O)NC2=O)c2cccc(N3CCC(C(=O)N4C[C@@H]5[C@H](C4)[C@H]5C(=O)NCC4(c5ccccc5)CCN(c5cnnc(-c6ccccc6O)c5)CC4)CC3)c21` (racemic) [Example 72, (1r,5s,6r)-3-(1-(1-((rs)-2,6-dioxopiperidin-3-yl)-3-methyl-2-oxo-2,3-dihydro-1h-benzo[d]imidazol-4-yl)piperidine-4-carbonyl)-n-((1-(6-(2-hydroxyphenyl)pyridazin-4-yl)-4-phenylpiperidin-4-yl)methyl)-3-azabicyclo[3.1.0]hexane-6-carboxamide] came in with a DC50 of 25.9 nM and a Dmax of 75.4%. For the same compound, on SMARCA2, the DC50 was determined as 0.61 nM, the Dmax is 95.8% and the “Fold Selectivity SMARCA4/2” value came to 42.
Consider `O=C1CCC(Nc2ccc(C3CCN(CCNC(=O)C4(c5ccccc5)CCN(c5cnnc(-c6ccccc6O)c5)CC4)CC3)cc2)C(=O)N1` (racemic) [Example 170, rac-N-{2-[4-(4-{[(3R)-2,6-dioxopiperidin-3-yl]amino}phenyl)piperidin-1-yl]ethyl}-1-[6-(2-hydroxyphenyl)pyridazin-4-yl]-4-phenylpiperidine-4-carboxamide], for which the Dmax at SMARCA4 amounted to 48.5%. Also, at SMARCA2, it took 38.3 nM to reach half-maximal degradation (DC50), the Dmax is 59.2% and the “Fold Selectivity SMARCA4/2” value is given as 261.
In the case of `Cc1ccnn1C1(C(=O)N(C)C2CCN(CCC3CCN(c4cccc5c4n(C)c(=O)n5C4CCC(=O)NC4=O)CC3)CC2)CCN(c2cnnc(-c3ccccc3O)c2)CC1` (racemic) [Example 61, rac-N-{1-[2-(1-{1-[(3R)-2,6-dioxopiperidin-3-yl]-3-methyl-2-oxo-2,3-dihydro-1H-1,3-benzodiazol-4-yl}piperidin-4-yl)ethyl]piperidin-4-yl}-1-[6-(2-hydroxyphenyl)pyridazin-4-yl]-n-methyl-4-(5-methyl-1H-pyrazol-1-yl)piperidine-4-carboxamide], on SMARCA4, it took 3.49 nM to reach half-maximal degradation (DC50) and the Dmax was 86.8%. For the same compound, at SMARCA2, the DC50 was found to be 0.18 nM, the Dmax was 96.7% and the “Fold Selectivity SMARCA4/2” value is 19.
Compound `O=C1CC[C@H](c2ccc(OCC3CCN(CC4CCN(C(=O)C5(c6ccccc6)CCN(c6cnnc(-c7ccccc7O)c6)CC5)CC4)CC3)cc2)C(=O)N1` [Example 36, (3R)-3-[4-({1-[(1-{1-[6-(2-hydroxyphenyl)pyridazin-4-yl]-4-phenylpiperidine-4-carbonyl}piperidin-4-yl)methyl]piperidin-4-yl}methoxy)phenyl]piperidine-2,6-dione] gave a Dmax on SMARCA4 of 27.4%. For the same compound, on SMARCA2, it took 32.3 nM to reach half-maximal degradation (DC50), the greatest degradation seen (Dmax) was 63.9% and the “Fold Selectivity SMARCA4/2” value was 309.98.
Consider `CN(C(=O)C1(c2ccccc2)CCN(c2cnnc(-c3ccccc3O)c2)CC1)C1CCN(CCC2CCN(c3ccc([C@H]4CCC(=O)NC4=O)cc3)CC2)CC1` [Example 192, N-{1-[2-(1-{4-[(3R)-2,6-dioxopiperidin-3-yl]phenyl}piperidin-4-yl)ethyl]piperidin-4-yl}-1-[6-(2-hydroxyphenyl)pyridazin-4-yl]-N-methyl-4-phenylpiperidine-4-carboxamide], for which, on SMARCA4, it took 128 nM to reach half-maximal degradation (DC50) and the Dmax came to 46.4%. Further, at SMARCA2, it took 4.58 nM to reach half-maximal degradation (DC50), the maximal degradation (Dmax) was 88.8% and the “Fold Selectivity SMARCA4/2” value turned out to be 28.
